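Where inhibition never reached the appropriate level, the endpoint shown equals the highest concentration tested. Otherwise, values were interpolated linearly from a five-concentration, 48-hour dose response in 96-well plates. Here, GI50 denotes the concentration required for 50% inhibition of growth.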 Calls of active or inactive are those of the source. No stated cut-off is given here; in the data, active = GI50 up to about 1.1 µM and inactive = higher.
Tests used:
Assay in all cases: inhibition of tumour cell growth, NCI panel, 48 h
[1] = system: SF-295
[2] = system: IGROV-1
[3] = system: RPMI-8226
[4] = system: OVCAR-4
[5] = system: XF498
[6] = system: LXFL 529
[7] = system: SNB-75
[8] = system: U-251
[9] = system: SR
[10] = system: DMS-114
[11] = system: OVCAR-5
[12] = system: UO-31
[13] = system: A498
[14] = system: UACC-62
[15] = system: DMS-273

Measured: GI50

[N-]=[N+]=Nc1ccccc1Oc1ccccc1
inactive: [1] > 100 µM | [2] > 100 µM | [3] > 100 µM | [4] > 100 µM | [5] > 100 µM | [6] > 100 µM | [7] > 100 µM | [8] > 100 µM | [9] > 100 µM | [10] > 100 µM | [11] > 100 µM | [12] > 100 µM | [13] > 100 µM | [14] > 100 µM | [15] > 100 µM

CSc1ccc(-c2cn3ccsc3n2)c(O)c1
inactive: [1] 39 µM | [2] > 100 µM | [3] 13.8 µM | [4] > 49.4 µM | [5] 30.2 µM | [6] > 54.5 µM | [7] 35.6 µM | [8] 46 µM | [9] 40.6 µM | [10] 26.1 µM | [11] > 92.9 µM | [12] 59.8 µM | [13] > 86.3 µM | [14] 69.7 µM | [15] 32.8 µM

CCN(CC)CCCNC(=O)Cc1ccccc1Nc1c(Cl)cccc1Cl
inactive: [1] 18 µM | [2] 18.4 µM | [3] 12.4 µM | [4] 15.7 µM | [5] 8.13 µM | [6] 7.67 µM | [7] 8.75 µM | [8] 13 µM | [9] 9.48 µM | [10] 13.6 µM | [11] 11.4 µM | [12] 11.2 µM | [14] 14.3 µM | [15] 14.9 µM

O=c1c(Br)cc2nc3ccccc3sc-2c1Br
inactive: [1] > 100 µM | [2] > 100 µM | [3] 18.5 µM | [4] 24 µM | [5] 27.2 µM | [6] 28.1 µM | [7] > 100 µM | [8] > 80.7 µM | [9] 53.5 µM | [10] 17.9 µM | [11] > 100 µM | [12] > 100 µM | [13] > 100 µM | [14] 25 µM | [15] > 100 µM

CC(C)(C)NC(=O)C12C3C4C1C1C2C3C41I (configuration not stated)
inactive: [1] > 100 µM | [3] > 100 µM | [5] > 100 µM | [6] > 100 µM | [8] > 100 µM | [9] > 100 µM | [10] > 100 µM | [11] > 100 µM | [12] > 100 µM | [13] > 100 µM | [15] > 100 µM

CN(C)CCN1N=Nc2cccc3cccc1c23
inactive: [1] > 100 µM | [2] > 100 µM | [3] > 43.9 µM | [4] 72.9 µM | [5] > 89.5 µM | [6] > 87.3 µM | [7] > 100 µM | [8] > 100 µM | [9] 15.7 µM | [10] > 74.8 µM | [11] > 100 µM | [12] > 100 µM | [13] > 91.8 µM | [14] > 100 µM | [15] 24.5 µM

CC(C)c1cccc(=O)c(O)c1 [HINOKITIOL]
inactive: [1] 6.52 µM | [2] 13.5 µM | [3] 7.93 µM | [4] 7.23 µM | [5] 4.24 µM | [6] 6.85 µM | [7] 24.4 µM | [8] 9.12 µM | [9] 2.84 µM | [10] 3.72 µM | [11] 15.7 µM | [12] 10.5 µM | [13] 44.1 µM | [14] 5.79 µM | [15] 3.83 µM

COc1ccc([C@@H]2C[C@@H]3C(=O)OC(=O)[C@@H]3c3c2c2ccccc2n3C)cc1
inactive: [1] > 100 µM | [2] > 100 µM | [3] > 100 µM | [4] > 100 µM | [5] > 100 µM | [6] > 100 µM | [7] > 100 µM | [9] > 100 µM | [10] > 100 µM | [12] > 100 µM | [13] > 100 µM | [14] > 100 µM | [15] > 100 µM

NC1=NC2=C(CCCC2)C(c2cccs2)S1 (configuration not stated)
inactive: [1] > 100 µM | [2] > 100 µM | [3] 61.7 µM | [4] 86.5 µM | [5] > 100 µM | [6] > 100 µM | [7] > 100 µM | [8] > 100 µM | [10] 42.8 µM | [11] > 100 µM | [12] 5.43 µM | [13] 72.6 µM | [14] > 100 µM | [15] > 100 µM

O=C1c2ccccc2C(=O)N1CCCOCc1cnc(O)nc1O
inactive: [1] > 100 µM | [2] > 100 µM | [3] > 100 µM | [4] > 100 µM | [5] > 100 µM | [6] > 100 µM | [7] > 100 µM | [8] > 100 µM | [10] > 100 µM | [11] > 100 µM | [12] > 100 µM | [13] > 100 µM | [14] > 100 µM | [15] > 100 µM

Cc1ccc(NC(=O)CC/C(CC(=O)C(C)(C)C)=N/Nc2nnc(C)n2N)cc1C
inactive: [1] > 100 µM | [2] > 100 µM | [3] > 100 µM | [5] > 100 µM | [6] > 100 µM | [7] > 100 µM | [8] > 100 µM | [9] 94.8 µM | [10] 62.2 µM | [11] > 100 µM | [12] > 100 µM | [13] > 100 µM | [14] > 100 µM | [15] 95.1 µM

CC(N)C(C)c1ccccc1 (configuration not stated)
inactive: [1] > 100 µM | [2] > 100 µM | [3] > 100 µM | [4] > 100 µM | [5] > 100 µM | [6] > 100 µM | [7] > 100 µM | [8] > 100 µM | [9] > 100 µM | [10] > 100 µM | [11] > 100 µM | [12] > 100 µM | [13] > 100 µM | [14] > 100 µM | [15] > 100 µM

CC(C)(C)C1CCC2c3c([nH]c4ncccc34)C3C(=O)N(c4ccccc4)C(=O)C3C2C1 (configuration not stated)
inactive: [1] > 100 µM | [2] > 100 µM | [3] > 100 µM | [4] > 100 µM | [5] > 100 µM | [6] > 100 µM | [7] 24.6 µM | [8] > 100 µM | [9] 36.1 µM | [10] 80 µM | [11] > 100 µM | [12] > 100 µM | [14] > 100 µM | [15] > 100 µM

Nc1c(-c2ccc(Cl)cc2)[n+]([O-])c2ccccc2[n+]1[O-]
inactive: [1] 87.7 µM | [2] > 100 µM | [3] 34.5 µM | [4] 69.3 µM | [5] 42.7 µM | [6] 52.7 µM | [7] 67.3 µM | [8] 62.2 µM | [10] 46.1 µM | [11] > 100 µM | [12] 5.86 µM | [13] 95.3 µM | [14] > 100 µM | [15] > 100 µM

Cc1cc(NS(=O)(=O)c2ccc(NC(=O)c3cccc4c(Nc5ccc(S(=O)(=O)Nc6cc(C)on6)cc5)c5ccc(Cl)cc5nc34)cc2)no1
inactive: [1] > 100 µM | [2] 59.4 µM | [3] 47.1 µM | [4] 49.5 µM | [5] 56.6 µM | [6] 43.2 µM | [7] 19.7 µM | [8] 35.5 µM | [10] 38.9 µM | [11] > 100 µM | [12] 25.3 µM | [13] 55 µM | [14] 35.2 µM | [15] 85.1 µM

CCC(O)CCCCCCCCCCCCCCC(=O)O (configuration not stated)
inactive: [1] > 100 µM | [2] > 100 µM | [3] 66.8 µM | [4] > 100 µM | [5] > 100 µM | [6] > 100 µM | [7] > 100 µM | [8] > 100 µM | [9] 49.9 µM | [10] > 100 µM | [11] > 100 µM | [12] > 100 µM | [13] > 100 µM | [14] > 100 µM | [15] > 100 µM

— ChEMBL document CHEMBL1201862, “PubChem BioAssay data set” (2004)
